In data set [1] the test system is cap-dependent translation in rabbit reticulocyte lysate (RRL). The conditions noted are these: cited from earlier work; for times more potent inhibition than the standard dinucleotide m^7GpppG: pure water without DMSO; for IC50: RRL, water solutions without DMSO, previously determined, read-out: IC50^WATER ± SE.
Data set [2] has as its system cap-dependent translation. The conditions noted are these: 1% DMSO solution; cited from earlier work.
For data set [3], the system named is cap-dependent translation in rabbit reticulocyte lysate (RRL). In words: Inhibition of cap-dependent translation of ARCA-capped luciferase mRNA in rabbit reticulocyte lysate (RRL). The class given is biochemical. The conditions noted are these: for Inhibition Relative to m^7GMP IC50^DMSO (m^7GMP)/ IC50^DMSO (Cap Analogue) / Inhibition Relative to m^7GpppG IC50^DMSO (m^7GpppG)/ IC50^DMSO (Cap Analogue): 1% DMSO; for IC50: ARCA-capped luciferase mRNA, 1% DMSO final concentration, read-out: IC50^DMSO ± SE. The method, then: To estimate the ability of the newly synthesized double-modified nucleotides to inhibit cap-dependent translation, the […] translation system from rabbit reticulocytes lysate (RRL) was used according to previously described procedures. This procedure was implemented because it mimics the competition between the cap analogue and the mRNA in the all-natural system. Briefly, experiments were performed in a micrococcal nuclease-treated RRL using an in vitro-transcribed, ARCA-capped, β-globin 5′ UTR containing mRNA encoding firefly luciferase to allow for the determination of protein synthesis by luminometry. […] Initially, the compounds were prepared in an aqueous solution containing 10% DMSO, and inhibition was measured at a final concentration of 1% DMSO. Incubations were conducted at several series of inhibitor concentrations in three independent measurement series (Figure 4).
Stock solutions were subsequently used for serial dilutions (in 10% DMSO). […] Experiments of the inhibition of the cap-dependent translation in rabbit reticulocyte lysate (Flexi RRL System, Promega) were performed as previously described. […] Next, 1.25 μL of the tested compound (as a solution in 10% DMSO) and m2^7,3′OGpppG-capped luciferase mRNA (to a final concentration of 5 ng/μL) was added to the reaction, and the translation mixture (12.5 μL final volume) was incubated for an additional 60 min. As a reference, reactions with DMSO (1.25 μL of 10% solution) were prepared. The reactions were stopped by chilling on ice, and the luciferase activity was determined in a Glomax luminometer (Promega). The IC50 values were obtained by fitting to the experimental data a theoretical curve that describes the extent of inhibition as a function of competitive inhibitor (e.g., cap analogue) concentration.

Data set [4] concerns the target T1, human eIF4E (heIF4E) (Homo sapiens, UniProt P06730).
T1 construct: The thermal stability of human full-length eIF4E (heIF4E) was analyzed; made in house
In words: Thermal stabilization of heIF4E by differential scanning fluorimetry (DSF). The conditions noted are these: 1% DMSO; for Relative Change in Affinity to m^7GMP: DSF appK ratio; for Kd: from ΔTm versus ligand concentration, single site ligand binding model, read-out: appK ± SE (apparent affinity to heIF4E). The data set is classed as binding. On the procedure:
The thermal stability of human full-length eIF4E (heIF4E) was analyzed using differential scanning fluorimetry (DSF), similar to that described previously for murine eIF4E [30]. heIF4E was expressed and purified as described earlier. The assay sample (20 μL) contained 5× SYPRO Orange (Sigma Aldrich, St. Louis, MO, USA) and 4 μM of heIF4E (final concentration) in HEPES/KOH with 100 mM KCl, 0.5 mM EDTA, and 1 mM DTT (pH 7.2). The tested compounds, as 10× stocks in 10% DMSO, were added to the final concentration at a range from 1 μM to 200 μM. DMSO at a 1% final concentration was then added to the control reactions without any compounds. […] The melting temperature (Tm) was determined as the minimum of the first negative derivative with the built-in CFX Manager Software (Bio-Rad).

Data set [5] can be described thus: Solubility in water. The class given is physicochemical.
The mark [6] stands for this setting: listed as (4-(diOCH3-bn)-tz-CH2)2bn^7GpppG (4).

The values below come from publication PMC11123931, “The Synergistic Effect of N2 and N7 Modifications on the Inhibitory Efficacy of mRNA Cap Analogues” (Pharmaceuticals, 2024).

Read-outs that look alike come from different tables or passages of the source.

T1 sequence (P06730 whole entry): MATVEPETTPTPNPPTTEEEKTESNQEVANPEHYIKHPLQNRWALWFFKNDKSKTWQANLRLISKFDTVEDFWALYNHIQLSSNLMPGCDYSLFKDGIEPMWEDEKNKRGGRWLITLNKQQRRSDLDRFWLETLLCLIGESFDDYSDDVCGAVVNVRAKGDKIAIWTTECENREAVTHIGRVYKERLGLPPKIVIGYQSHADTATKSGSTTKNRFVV

With `Nc1nc2c(ncn2[C@@H]2O[C@H](COP(=O)(O)OP(=O)(O)OP(=O)(O)OC[C@H]3O[C@@H](n4c[n+](Cc5ccccc5)c5c(=O)[nH]c(N)nc54)[C@H](O)[C@@H]3O)[C@@H](O)[C@H]2O)c(=O)[nH]1` [bn^7GpppG], the “times more potent inhibition than the standard dinucleotide m^7GpppG” value in data set [1] is “approximately 1.5”.
Regarding `Nc1nc2c(c(=O)[nH]1)[n+](Cc1ccccc1)cn2[C@@H]1O[C@H](COP(=O)([O-])O)[C@@H](O)[C@H]1O` [compound 1, 7-benzylguanosine monophosphate], in data set [2], the “inhibitory properties compared to m^7GMP (times better)” value was 1.5.
As to `COc1cccc(OC)c1OCCCn1cc(CNc2nc3c(c(=O)[nH]2)[n+](C)cn3[C@@H]2O[C@H](COP(=O)([O-])O)[C@@H](O)[C@H]2O)nn1` [compound 2, (4-(diOCH3-bn)-tz-CH2)2m^7GMP], the IC50 (commonly the concentration needed to halve the response being measured) in data set [1] was 2000 ± 100 nM. Also, in data set [3], the “Inhibition Relative to m^7GMP IC50^DMSO (m^7GMP)/ IC50^DMSO (Cap Analogue)” value is reported as 10.67, the “Inhibition Relative to m^7GpppG IC50^DMSO (m^7GpppG)/ IC50^DMSO (Cap Analogue)” value is given as 2.47 and the IC50 worked out at 1800 ± 210 nM. The “Relative Change in Affinity to m^7GMP” value in data set [4] is on record as 1.8. For the same molecule, the Kd in data set [4] (DSF) is 13.3 ± 3.45 µM.
Consider `COc1cccc(OC)c1OCCCn1cc(CNc2nc3c(c(=O)[nH]2)[n+](Cc2ccccc2)cn3[C@@H]2O[C@H](COP(=O)([O-])O)[C@@H](O)[C@H]2O)nn1` [compound 3], for which, in data set [3], the “Inhibition Relative to m^7GMP IC50^DMSO (m^7GMP)/ IC50^DMSO (Cap Analogue)” value is 7.11, the “Inhibition Relative to m^7GpppG IC50^DMSO (m^7GpppG)/ IC50^DMSO (Cap Analogue)” value is 1.64 and the concentration for half-maximal inhibition (IC50) turned out to be 2700 ± 300 nM. Besides, the “Relative Change in Affinity to m^7GMP” value in data set [4] is given as 1.7. The Kd in data set [4] (DSF) is 14.7 ± 1.14 µM. For the same molecule, in data set [5], the solubility in water result was “only partially soluble in water”.
For `COc1cccc(OC)c1OCCCn1cc(CNc2nc3c(c(=O)[nH]2)[n+](Cc2ccccc2)cn3[C@@H]2O[C@H](COP(=O)(O)OP(=O)([O-])OP(=O)(O)OC[C@H]3O[C@@H](n4cnc5c(=O)[nH]c(N)nc54)[C@H](O)[C@@H]3O)[C@@H](O)[C@H]2O)nn1` [compound 4], in data set [3], the “Inhibition Relative to m^7GMP IC50^DMSO (m^7GMP)/ IC50^DMSO (Cap Analogue)” value amounted to 80.08, the “Inhibition Relative to m^7GpppG IC50^DMSO (m^7GpppG)/ IC50^DMSO (Cap Analogue)” value is on record as roughly 18 and the 50% inhibitory concentration (IC50) amounted to 240 ± 20 nM. Further, in data set [3] (setting [6]), the “Inhibition Relative to m^7GpppG IC50^DMSO (m^7GpppG)/ IC50^DMSO (Cap Analogue)” value was found to be 18.54. Also, the “Relative Change in Affinity to m^7GMP” value in data set [4] (setting [6]) stood at 6.8. Further, in data set [4] (DSF, below a 10 μM final concentration), the “ΔTm of heIF4E” value is ~ 10 °C. For the same molecule, in data set [4] (DSF), the Kd came out at 3.58 ± 1.09 µM.
With `Cn1c[n+]([C@@H]2O[C@H](COP(=O)(O)O)[C@@H](O)[C@H]2O)c2nc(N)[nH]c(=O)c21` [m^7GMP], the IC50 in data set [1] was greater than 50000 nM; in data set [3], 19200 ± 3310 nM.
Regarding `Cn1c[n+]([C@@H]2O[C@H](COP(=O)([O-])OP(=O)(O)OP(=O)(O)O)[C@@H](O)[C@H]2O)c2nc(N)[nH]c(=O)c21` [m^7GTP], the IC50 in data set [1] is 2300 ± 200 nM; in data set [3], 1090 ± 140 nM.
With `Cn1c[n+]([C@@H]2O[C@H](COP(=O)(O)OP(=O)([O-])OP(=O)(O)OC[C@H]3O[C@@H](n4cnc5c(=O)[nH]c(N)nc54)[C@H](O)[C@@H]3O)[C@@H](O)[C@H]2O)c2nc(N)[nH]c(=O)c21` [m^7GpppG], the IC50 was 8600 ± 700 nM in data set [1] and 4450 ± 610 nM in data set [3].
Turning to (4-(diOCH3-bn)-tz-CH2)^2m^7GpppG, the “times more potent inhibition than the standard dinucleotide m^7GpppG” value in data set [1] is listed as roughly 6.9.
